Non-standard residues stand in square brackets, D forms with d. Residues, ends and D or L forms follow the SMILES beside them. *: point of attachment. Phe(F5) = N[C@@H](Cc1c(F)c(F)c(F)c(F)c1F)C(=O)O; Desaminotyrosyl = O=C(CCc1ccc(O)cc1)*; NMeY = CN[C@@H](Cc1ccc(O)cc1)C(=O)O; Agmatine = N=C(N)NCCCCN*; Nle = CCCC[C@H](N)C(=O)O; Orn = NCCC[C@H](N)C(=O)O; Abu = CC[C@H](N)C(=O)O; GABA = NCCCC(=O)O
What was measured:
GHRH receptor = target: T1, GHRH receptor (Homo sapiens, UniProt Q02643); assay: Receptor binding in vitro, 125I-labeled [His1,Nle27]-hGHRH(1-32)NH2, membrane receptors of human anterior pituitary cells (Table 14); details: for Relative affinity (Binding potency) compared to JI-38: JI-38 = 1; for GHRH receptor binding affinity (in words): compared to JI-38; for Relative affinity (Binding potency) compared to hGHRH(1-29): hGHRH(1-29)NH2 = 1
T1 sequence (Q02643 23-423): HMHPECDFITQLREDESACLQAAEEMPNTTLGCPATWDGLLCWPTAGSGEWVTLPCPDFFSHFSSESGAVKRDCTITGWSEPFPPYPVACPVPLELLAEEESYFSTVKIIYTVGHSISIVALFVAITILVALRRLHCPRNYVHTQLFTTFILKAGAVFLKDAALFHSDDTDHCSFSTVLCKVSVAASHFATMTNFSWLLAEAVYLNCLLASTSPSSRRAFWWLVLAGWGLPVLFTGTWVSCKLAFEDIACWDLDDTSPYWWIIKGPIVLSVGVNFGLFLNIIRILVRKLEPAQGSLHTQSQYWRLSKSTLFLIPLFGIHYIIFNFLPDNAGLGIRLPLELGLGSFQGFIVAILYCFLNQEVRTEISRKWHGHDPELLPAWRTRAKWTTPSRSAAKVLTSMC
Excerpt: Normal human pituitary was purchased from the National Hormone and Peptide Program (UCLA Medical Center, Torrance, Calif.).

[1] = test system: myocardial infarction (Fisher-344 rats); assay: Hemodynamic analysis (pressure-volume loops), body and heart weight after MI, compared to JI-38 (Example 15, Table 16); assay type: in vivo, rat; parameters: key to ESP (End-Systolic Pressure) / EDP (End-Diastolic Pressure) / ESV (End-Systolic Volume) / PRSW (Preload Recruitable Stroke Work) / Ees (End-systolic Elastance) / dP/dt max (peak rate of the pressure rise) / dP/dt max_EDV / dP/dt min / TAU (relaxation time constant calculated by Weiss method) / SV (Stroke Volume) / CO (Cardiac Output) / SW (Stroke Work) / EF / Ea/Ees / Ea (arterial Elastance): ↓: downward arrow denotes lower than JI-38; ↑: upward arrow denotes greater than JI-38; =denotes same as JI-38; ⬇⬇: double arrow denotes greater effect; ⬆⬆: double arrow denotes greater effect; details: rat MI model, s.c. twice daily; pressure-volume loops; expressed in comparison to JI-38
Procedure, shortened: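 Female 6-month-old Fisher-344 rats after permanent left coronary ligation received GHRH agonists subcutaneously twice daily from 2 h post-surgery (n=10/group). Under ketamine/xylazine/acepromazine anesthesia, LV pressure-volume loops were recorded via carotid micromanometer catheter, calibrated by hypertonic saline bolus and cuvette method; echocardiography also serial.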

[2] = test system: myocardial infarction (Fisher-344 rats); assay: Serial echocardiography after MI, compared to JI-38 (Example 15, Table 15); assay type: in vivo, rat; parameters: key to LVEDD: Left Ventricular End Diastolic Diameter / LVESD: Left Ventricular End Systolic Diameter / VD: Ventricular Diastole / VS: Ventricular Systole / EF: Ejection Fraction / FS: Fraction Shortening: ↓: downward arrow denotes lower than JI-38; ↑: upward arrow denotes greater than JI-38; =denotes same as JI-38; ⬇⬇: double arrow denotes greater effect; ⬆⬆: double arrow denotes greater effect; details: in comparison to JI-38
Procedure, shortened: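 Female 6-month-old Fisher-344 rats with permanent left coronary artery ligation received placebo, JI-38 or GHRH agonists subcutaneously twice daily from 2 h post-surgery (10 per group). Under 2% isoflurane, M-mode LVEDD, LVESD and FS plus long-axis EF were measured at baseline, 2 days, 1, 2 and 4 weeks.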

GH release = assay: In vivo endocrine activity, GH release after subcutaneous administration (Table 9); details: rat; for GH releasing potency relative to JI-38 (=1): subcutaneous (s.c.) injection; for Stimulation of growth hormone levels after subcutaneous administration (in words): s.c.
Protocol: Subcutaneous Administration. Adult male rats were used and anesthetized with pentobarbital (6 mg/100 g, b.w.), by i.p. injection. […] Blood samples were taken from the jugular vein 5, 15 and/or 30 minutes after the injection. The blood samples were centrifuged, plasma was removed and the GH level was measured byELISA. The results are summarized in terms of potency in Table 9.

Row | Compound | Relative affinity (Binding potency) compared to hGHRH(1-29) (GHRH receptor) | CO (Cardiac Output) [1] | EDP (End-Diastolic Pressure) [1] | EF [1] | ESP (End-Systolic Pressure) [1] | ESV (End-Systolic Volume) [1] | Ea (arterial Elastance) [1] | Ea/Ees [1] | Ees (End-systolic Elastance) [1] | PRSW (Preload Recruitable Stroke Work) [1] | SV (Stroke Volume) [1] | SW (Stroke Work) [1] | TAU (relaxation time constant calculated by Weiss method) [1] | dP/dt max (peak rate of the pressure rise) [1] | dP/dt max_EDV [1] | dP/dt min [1] | EF: Ejection Fraction [2] | FS: Fraction Shortening [2] | LVEDD: Left Ventricular End Diastolic Diameter [2] | LVESD: Left Ventricular End Systolic Diameter [2] | further results
1 | CCCC[C@H](NC(=O)[C@@H](NC(=O)[C@H](CC(=O)O)NC(=O)[C@H](CCC(N)=O)NC(=O)[C@H](CC(C)C)NC(=O)[C@H](CC(C)C)NC(=O)[C@H](CCCN)NC(=O)[C@H](CCCNC(=N)N)NC(=O)[C@H](C)NC(=O)[C@H](CO)NC(=O)[C@H](CC(C)C)NC(=O)[C@H](CCC(N)=O)NC(=O)[C@H](CC)NC(=O)[C@H](CC(C)C)NC(=O)[C@@H](NC(=O)[C@H](CCCN)NC(=O)[C@H](CCCNC(=N)N)NC(=O)[C@H](Cc1ccc(O)cc1)NC(=O)[C@H](CO)NC(=O)[C@H](CC(N)=O)NC(=O)[C@@H](NC(=O)[C@H](Cc1ccccc1)NC(=O)[C@@H](NC(=O)[C@H](C)NC(=O)[C@H](CC(=O)O)NC(=O)[C@@H](C)NC(=O)[C@H](Cc1ccc(O)cc1)NC)[C@@H](C)CC)[C@@H](C)O)C(C)C)[C@@H](C)CC)C(=O)N[C@@H](CC(=O)O)C(=O)NCCCCNC(=N)N [Peptide P-20367, [N—Me-Tyr^1, D-Ala^2, Orn^12, Abu^15, Orn^21, Nle^27, Asp^28, Agm^29]hGHRH(1-29)NH2] (H-[NMeY][dA]DAIFTNSYR[Orn]VL[Abu]QLSAR[Orn]LLQDI[Nle]D-Agmatine) | 7.01 | ↑ | ↑ | = | ↑ | ↑ | = | ↓ | = | = | = | ↓ | = | = | = | = | = | = | ↑ | ↑ | Relative affinity (Binding potency) compared to JI-38 (GHRH receptor): 2.51; GHRH receptor binding affinity (in words) (GHRH receptor): improved receptor binding affinity; VD: Ventricular Diastole [2]: ↑; VS: Ventricular Systole [2]: ↑; GH releasing potency relative to JI-38 (=1) (GH release; 15 min after): 1.12; GH releasing potency relative to JI-38 (=1) (GH release; 30 min after): 2.01
2 | CCCC[C@H](NC(=O)[C@@H](NC(=O)[C@H](CC(=O)O)NC(=O)[C@H](CCC(N)=O)NC(=O)[C@H](CC(C)C)NC(=O)[C@H](CC(C)C)NC(=O)[C@H](CCCN)NC(=O)[C@H](CCCNC(=N)N)NC(=O)[C@H](C)NC(=O)[C@H](CO)NC(=O)[C@H](CC(C)C)NC(=O)[C@H](CCC(N)=O)NC(=O)[C@H](CC)NC(=O)[C@H](CC(C)C)NC(=O)[C@@H](NC(=O)[C@H](CCCN)NC(=O)[C@H](CCCNC(=N)N)NC(=O)[C@H](Cc1ccc(O)cc1)NC(=O)[C@H](CO)NC(=O)[C@H](CC(N)=O)NC(=O)[C@@H](NC(=O)[C@H](Cc1c(F)c(F)c(F)c(F)c1F)NC(=O)[C@@H](NC(=O)[C@H](C)NC(=O)[C@H](CC(=O)O)NC(=O)[C@@H](C)NC(=O)CCc1ccc(O)cc1)[C@@H](C)CC)[C@@H](C)O)C(C)C)[C@@H](C)CC)C(=O)N[C@@H](CO)C(=O)N[C@@H](CCCNC(=N)N)C(=O)NCCCC(N)=O [Peptide P-25502, [Dat^1, D-Ala^2, Fpa5^6, Orn^12, Abu^15, Orn^21, Nle^27, Gab^30]hGHRH(1-30)NH2] (Desaminotyrosyl-[dA]DAI[Phe(F5)]TNSYR[Orn]VL[Abu]QLSAR[Orn]LLQDI[Nle]SR[GABA]-NH2) | 3.54 | ↓ | = | ↓ | = | = | ↑ | = | ↑ | = | ↓ | = | ↓ | = | = | = | = | = | = | = | Relative affinity (Binding potency) compared to JI-38 (GHRH receptor): 1.27; VD: Ventricular Diastole [2]: ↑; VS: Ventricular Systole [2]: ↑; Stimulation of growth hormone levels after subcutaneous administration (in words) (GH release): stimulated greater growth hormone levels than hGHRH or JI-38; GH releasing potency relative to JI-38 (=1) (GH release; 15 min after): 1.10; GH releasing potency relative to JI-38 (=1) (GH release; 30 min after): 0.94
3 | CCCC[C@H](NC(=O)[C@@H](NC(=O)[C@H](CC(=O)O)NC(=O)[C@H](CCC(N)=O)NC(=O)[C@H](CC(C)C)NC(=O)[C@H](CC(C)C)NC(=O)[C@H](CCCN)NC(=O)[C@H](CCCNC(=N)N)NC(=O)[C@H](C)NC(=O)[C@H](CO)NC(=O)[C@H](CC(C)C)NC(=O)[C@H](CCC(N)=O)NC(=O)[C@H](CC)NC(=O)[C@H](CC(C)C)NC(=O)[C@@H](NC(=O)[C@H](CCCN)NC(=O)[C@H](CCCNC(=N)N)NC(=O)[C@H](Cc1ccc(O)cc1)NC(=O)[C@H](CO)NC(=O)[C@H](CCC(N)=O)NC(=O)[C@@H](NC(=O)[C@H](Cc1ccccc1)NC(=O)[C@@H](NC(=O)[C@H](C)NC(=O)[C@H](CC(=O)O)NC(=O)[C@@H](C)NC(=O)[C@H](Cc1ccc(O)cc1)NC)[C@@H](C)CC)[C@@H](C)O)C(C)C)[C@@H](C)CC)C(=O)N[C@@H](CC(=O)O)C(=O)N[C@@H](CCCNC(=N)N)C(=O)NC [Peptide P-27403, [N—Me-Tyr^1, D-Ala^2, Gln^8, Orn^12, Abu^15, Orn^21, Nle^27, Asp^28]hGHRH(1-29)NH—CH3] (H-[NMeY][dA]DAIFTQSYR[Orn]VL[Abu]QLSAR[Orn]LLQDI[Nle]DR-NHMe) | 10.30 | ↑ | ↑ | = | = | ↑ | = | ↓ | = | = | = | = | = | = | = | = | = | ↓ | ↑ | ↑ | Relative affinity (Binding potency) compared to JI-38 (GHRH receptor; listed as MR-403): 3.69; GHRH receptor binding affinity (in words) (GHRH receptor): highest GH-releasing potency and binding affinity; VD: Ventricular Diastole [2]: ↑; VS: Ventricular Systole [2]: ↑; Stimulation of growth hormone levels after subcutaneous administration (in words) (GH release): stimulated greater growth hormone levels than hGHRH or JI-38; GH releasing potency relative to JI-38 (=1) (GH release; 15 min after): 3.60; GH releasing potency relative to JI-38 (=1) (GH release; 30 min after): 2.57
